In PubChem BioAssay (NCI):
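At the GI50, growth is halved. TGI is the concentration that stops growth completely.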

Assays:
Experiment in all cases: DTP human tumour cell line panel, 384-well format
MDA-MB-231 breast = tested on: MDA-MB-231 breast
SR leukemia = tested on: SR leukemia
NCI/ADR-RES ovarian = tested on: NCI/ADR-RES ovarian
SK-MEL-5 melanoma = tested on: SK-MEL-5 melanoma
HL-60(TB) leukemia = tested on: HL-60(TB) leukemia
RPMI-8226 leukemia = tested on: RPMI-8226 leukemia
OVCAR-8 ovarian = tested on: OVCAR-8 ovarian
CAKI-1 renal = tested on: CAKI-1 renal
MOLT-4 leukemia = tested on: MOLT-4 leukemia
MCF7 breast = tested on: MCF7 breast
SF-539 CNS = tested on: SF-539 CNS
SF-295 CNS = tested on: SF-295 CNS
HS 578T breast = tested on: HS 578T breast
HOP-92 NSCLC = tested on: HOP-92 NSCLC
UACC-257 melanoma = tested on: UACC-257 melanoma
BT-549 breast = tested on: BT-549 breast
NCI-H322M lung = tested on: NCI-H322M lung
SF-268 CNS = tested on: SF-268 CNS
MDA-MB-435 melanoma = tested on: MDA-MB-435 melanoma
HT29 colon = tested on: HT29 colon
OVCAR-5 ovarian = tested on: OVCAR-5 ovarian
SK-OV-3 ovarian = tested on: SK-OV-3 ovarian
SNB-75 CNS = tested on: SNB-75 CNS
IGROV1 ovarian = tested on: IGROV1 ovarian
NCI-H522 lung = tested on: NCI-H522 lung
HCC-2998 colon = tested on: HCC-2998 colon
NCI-H226 lung = tested on: NCI-H226 lung
SN12C renal = tested on: SN12C renal
MALME-3M melanoma = tested on: MALME-3M melanoma
HCT-15 colon = tested on: HCT-15 colon
SW-620 colon = tested on: SW-620 colon
M14 melanoma = tested on: M14 melanoma
PC-3 prostate = tested on: PC-3 prostate
COLO 205 colon = tested on: COLO 205 colon
A498 renal = tested on: A498 renal
U251 glioblastoma = tested on: U251 glioblastoma
MDA-MB-468 breast = tested on: MDA-MB-468 breast
LOX IMVI melanoma = tested on: LOX IMVI melanoma
RXF 393 renal = tested on: RXF 393 renal
DU-145 prostate = tested on: DU-145 prostate
OVCAR-3 ovarian = tested on: OVCAR-3 ovarian
786-0 renal = tested on: 786-0 renal
KM12 colon = tested on: KM12 colon
OVCAR-4 ovarian = tested on: OVCAR-4 ovarian
UO-31 renal = tested on: UO-31 renal
TK-10 renal = tested on: TK-10 renal
NCI-H460 NSCLC = tested on: NCI-H460 NSCLC
K-562 leukemia = tested on: K-562 leukemia
HOP-62 NSCLC = tested on: HOP-62 NSCLC
NCI-H23 lung = tested on: NCI-H23 lung
SNB-19 CNS = tested on: SNB-19 CNS
HCT-116 colon = tested on: HCT-116 colon
CCRF-CEM leukemia = tested on: CCRF-CEM leukemia
EKVX NSCLC = tested on: EKVX NSCLC
T-47D breast = tested on: T-47D breast
A549 NSCLC = tested on: A549 NSCLC
SK-MEL-28 melanoma = tested on: SK-MEL-28 melanoma
ACHN renal = tested on: ACHN renal

Q: What does the source list for NC(=O)c1ccc(-c2nc(-c3ccc4c(c3)OCO4)c(-c3ccccn3)[nH]2)cc1?
A: GI50 (MDA-MB-231 breast): 22.2 µM; TGI (MDA-MB-231 breast): 83 µM; GI50 (SR leukemia): 17.5 µM; TGI (SR leukemia): 32.4 µM; GI50 (NCI/ADR-RES ovarian): 16.4 µM; TGI (NCI/ADR-RES ovarian): 33.3 µM; GI50 (SK-MEL-5 melanoma): 7.13 µM; TGI (SK-MEL-5 melanoma): 19.5 µM; GI50 (HL-60(TB) leukemia): 17.8 µM; TGI (HL-60(TB) leukemia): 31.7 µM; GI50 (RPMI-8226 leukemia): 15.7 µM; TGI (RPMI-8226 leukemia): 30.4 µM; GI50 (OVCAR-8 ovarian): 22.6 µM; TGI (OVCAR-8 ovarian): 52.2 µM; GI50 (CAKI-1 renal): 28.4 µM; TGI (CAKI-1 renal): 72.9 µM; GI50 (MOLT-4 leukemia): 16.5 µM; TGI (MOLT-4 leukemia): 30.3 µM; GI50 (MCF7 breast): 20.6 µM; TGI (MCF7 breast): 49.1 µM; GI50 (SF-539 CNS): 41.8 µM; TGI (SF-539 CNS): > 100 µM; GI50 (SF-295 CNS): 20.2 µM; TGI (SF-295 CNS): 43.3 µM; GI50 (HS 578T breast): 25.3 µM; TGI (HS 578T breast): 60.1 µM; GI50 (HOP-92 NSCLC): 30.7 µM; TGI (HOP-92 NSCLC): 95.7 µM; GI50 (UACC-257 melanoma): 22.4 µM; TGI (UACC-257 melanoma): 43 µM; GI50 (BT-549 breast): 17.5 µM; TGI (BT-549 breast): 64.3 µM; GI50 (NCI-H322M lung): 27.9 µM; TGI (NCI-H322M lung): 90.6 µM; GI50 (SF-268 CNS): 38 µM; TGI (SF-268 CNS): > 100 µM; GI50 (MDA-MB-435 melanoma): 39.6 µM; TGI (MDA-MB-435 melanoma): > 100 µM; GI50 (HT29 colon): 19.9 µM; TGI (HT29 colon): 44.9 µM; GI50 (OVCAR-5 ovarian): 26.6 µM; TGI (OVCAR-5 ovarian): 81.9 µM; GI50 (SK-OV-3 ovarian): 24.3 µM; TGI (SK-OV-3 ovarian): 64.9 µM; GI50 (SNB-75 CNS): 42.4 µM; TGI (SNB-75 CNS): > 100 µM; GI50 (IGROV1 ovarian): 19.6 µM; TGI (IGROV1 ovarian): 46.1 µM; GI50 (NCI-H522 lung): 24.2 µM; TGI (NCI-H522 lung): 46.1 µM; GI50 (HCC-2998 colon): 16.7 µM; TGI (HCC-2998 colon): 36.3 µM; GI50 (NCI-H226 lung): 17.2 µM; TGI (NCI-H226 lung): 32.7 µM; GI50 (SN12C renal): 39.1 µM; TGI (SN12C renal): > 100 µM; GI50 (MALME-3M melanoma): 29.7 µM; TGI (MALME-3M melanoma): 52.4 µM; GI50 (HCT-15 colon): 18.9 µM; TGI (HCT-15 colon): 36 µM; GI50 (SW-620 colon): 60.6 µM; TGI (SW-620 colon): > 100 µM; GI50 (M14 melanoma): 24.4 µM; TGI (M14 melanoma): 83.2 µM; GI50 (PC-3 prostate): 27.2 µM; TGI (PC-3 prostate): > 100 µM; GI50 (COLO 205 colon): 21.7 µM; TGI (COLO 205 colon): 39.3 µM; GI50 (A498 renal): 23.4 µM; TGI (A498 renal): 56.3 µM; GI50 (U251 glioblastoma): 35.2 µM; TGI (U251 glioblastoma): > 100 µM; GI50 (MDA-MB-468 breast): 17.9 µM; TGI (MDA-MB-468 breast): 36.9 µM; GI50 (LOX IMVI melanoma): 14.2 µM; TGI (LOX IMVI melanoma): 29.4 µM; GI50 (RXF 393 renal): 11.9 µM; TGI (RXF 393 renal): 26.8 µM; GI50 (DU-145 prostate): 23.7 µM; TGI (DU-145 prostate): 52.1 µM; GI50 (OVCAR-3 ovarian): 21.6 µM; TGI (OVCAR-3 ovarian): 47.1 µM; GI50 ([…]-0 renal): 28 µM; TGI (786-0 renal): 81.6 µM; GI50 (KM12 colon): 27 µM; TGI (KM12 colon): 73.2 µM; GI50 (OVCAR-4 ovarian): 26.7 µM; TGI (OVCAR-4 ovarian): 71.6 µM; GI50 (UO-31 renal): 42.6 µM; TGI (UO-31 renal): > 100 µM; GI50 (TK-10 renal): 24.6 µM; TGI (TK-10 renal): 60.4 µM; GI50 (NCI-H460 NSCLC): 14.4 µM; TGI (NCI-H460 NSCLC): 28.1 µM; GI50 (K-562 leukemia): 35.3 µM; TGI (K-562 leukemia): > 100 µM; GI50 (HOP-62 NSCLC): 18.5 µM; TGI (HOP-62 NSCLC): 43 µM; GI50 (NCI-H23 lung): 22 µM; TGI (NCI-H23 lung): 47.7 µM; GI50 (SNB-19 CNS): 40.1 µM; TGI (SNB-19 CNS): > 100 µM; GI50 (HCT-116 colon): 16.9 µM; TGI (HCT-116 colon): 32.2 µM; GI50 (CCRF-CEM leukemia): 18.1 µM; TGI (CCRF-CEM leukemia): 38.7 µM; GI50 (EKVX NSCLC): 14.3 µM; TGI (EKVX NSCLC): 59.1 µM; GI50 (T-47D breast): 20.4 µM; TGI (T-47D breast): 42.4 µM; GI50 (A549 NSCLC): 21.1 µM; TGI (A549 NSCLC): 57.1 µM; GI50 (SK-MEL-28 melanoma): 32.9 µM; TGI (SK-MEL-28 melanoma): 86.5 µM; GI50 (ACHN renal): 44.7 µM; TGI (ACHN renal): > 100 µM
